Measured values as given in paper PMC6691761, “Potential multifunctional agents with anti-hepatoma and anti-inflammation properties by inhibiting NF-кB activation” (Journal of Enzyme Inhibition and Medicinal Chemistry, 2019).

Key:
[1] = tested on: human acute mononuclear granulocyte leukaemia (THP-1); assay: Cytotoxicity, MTT assay, THP-1; format: cell-based; details: for IC50: MTT, 24 h; for THP-1 SI (selectivity index): quotient of IC50 towards LO2 cells
From the text: (§1) Compounds 83–102 were screened against human neoplastic cell lines, such as human breast cancer cells (MCF-7), human colon cancer cells (HCT116), human lung carcinoma cells (A549), human gastric adenocarcinoma cells (SGC7901), human liver hepatocellular carcinoma cell line (HepG2), human cervical carcinoma cells (HeLa), human acute mononuclear granulocyte leukaemia (THP-1), and human normal hepatic cell line (LO2) using modified MTT assay. All the cells were obtained from the American Type Culture Collection (ATCC, Manassas, VA). The cells were cultured in DMEM or 1640. Positive controls (Doxorubicin (DOX) and Curcumin) and BAPs were initially dissolved in dimethyl sulphoxide (DMSO). Experimental concentration of DMSO was always 0.1% (v/v). The concentrations of BAPs and positive controls were 50, 20, 10, 5, 2.5, 1, 0.5, 0.1, 0.05, and 0.01 μg/mL.
(§2) The cells (1 × 10^4 cells/well) were seeded in a 96-well plate and incubated for 24 h. Cells treated with serial concentrations of drugs were incubated for another 24 h. After the media removed, 20 μL of MTT (5 mg/mL) solution was added and incubated for 4 h at 37 °C. The MTT solution was removed and then 150 μL of DMSO was added. The optical density was measured with a multi-well plate reader (TECAN, Mӓnnedorf, Switzerland) at 570 nm. The results are expressed as a decrease in the cell viability (%) in comparison to untreated controls. The concentration of each compound was examined in triplicate, and the IC50 values are expressed in Table 1.

[2] = tested on: human cervical carcinoma cells (HeLa); assay: Cytotoxicity, MTT assay, HeLa; format: cell-based; details: for IC50: MTT, 24 h; for HeLa SI (selectivity index): quotient of IC50 towards LO2 cells
From the text: as §1, §2

[3] = tested on: human normal hepatic cell line (LO2); assay: Toxicity to normal cells, MTT assay, LO2; format: cell-based; details: 24 h
From the text: as §1, §2

[4] = tested on: human breast cancer cells (MCF-7); assay: Cytotoxicity, MTT assay, MCF-7; format: cell-based; details: for IC50: MTT, 24 h; for MCF-7 SI (selectivity index): quotient of IC50 towards LO2 cells
From the text: as §1, §2

[5] = tested on: human gastric adenocarcinoma cells (SGC7901); assay: Cytotoxicity, MTT assay, SGC7901; format: cell-based; details: for IC50: MTT, 24 h; for SGC7901 SI (selectivity index): quotient of IC50 towards LO2 cells
From the text: as §1, §2

[6] = tested on: human liver hepatocellular carcinoma cell line (HepG2); assay: Cytotoxicity, MTT assay, HepG2; format: cell-based; details: for IC50: MTT, 24 h; for HepG2 SI (selectivity index): quotient of IC50 towards LO2 cells
From the text: as §1, §2

[7] = tested on: TNF-α production in LPS-stimulated RAW264.7 cells; assay: TNF-α production in LPS-stimulated RAW264.7 cells, ELISA; format: cell-based
Procedure: The anti-inflammatory activities of BAPs were evaluated by ELISA. After pretreated with 30 μM of positive drug pyrrolidinedithiocarbamate (PDTC) or 6 μM of BAPs for 2 h, cells were treated with LPS (1.0 μg/mL) for 22 h. The culture media were collected and centrifuged for detecting the expression levels of TNF-α by an ELISA kit (eBioScience, San Diego, CA).
TNF-α is a common pro-inflammatory factors that can be produced by LPS-stimulated RAW264.7 macrophage[14]^,[24]. In order to evaluate the anti-inflammatory activity of BAPs, the effect of BAPs on TNF-α production in LPS-stimulated RAW264.7 cells was detected by ELISA. […] Only 92 presented slightly lower expression of TNF-α secretion (about 57%).

[8] = tested on: human colon cancer cells (HCT116); assay: Cytotoxicity, MTT assay, HCT116; format: cell-based; details: for IC50: MTT, 24 h; for HCT116 SI (selectivity index): quotient of IC50 towards LO2 cells
From the text: as §1, §2

[9] = tested on: human lung carcinoma cells (A549); assay: Cytotoxicity, MTT assay, A549; format: cell-based; details: for IC50: MTT, 24 h; for A549 SI (selectivity index): quotient of IC50 towards LO2 cells
From the text: as §1, §2

[10] = tested on: Bcl-2 expression in HepG2 xenografts; assay: Immunohistochemistry staining of Bcl-2 in HepG2 xenografts; format: in vivo, Balb/c nude mice; details: 96 5.0 mg/kg, DOX 1.0 mg/kg, versus model group
Procedure: (§3) The HepG2 cells xenografts were established using the Balb/c nude mice (female, 7-week-old, 17–19 g, n = 30) (Shanghai Laboratory Animal Center, Shanghai Shi, China) were used to investigate the anti-hepatoma effect of 96. Animal experiments were reviewed and approved by the Binzhou Medical University Experimental Animal Committee. Briefly, HepG2 cells (1 × 10^7/0.2 ml PBS/mouse) were inoculated subcutaneously. Three days after the inoculation, the mice were randomly divided into five groups: the saline treated group (Control), 96 (0.2 mg/kg) group, 96 (1.0 mg/kg) treated group, 96 (5.0 mg/kg) treated group, and DOX (1.0 mg/kg) treated group. 96 were dissolved in saline containing 1% of DMSO and administered intraperitoneally every 2 d for 20 days. DOX was also administered intraperitoneally every 2 d for 20 d. The body weight and HepG2 xenografts volumes were recorded from the day of treatment, and xenografts volumes were calculated using the equation: tumour volume = length×(width)[2]×π/6. At the end of the experiment, mice were sacrificed and the xenografts were obtained for western blotting, HE staining and immunohistochemistry staining.
(§4) The HepG2 xenografts tissues were embedded using the paraffin, and sectioned for HE staining and immunohistochemistry staining. HE staining was performed routinely. The immunohistochemistry staining carried out as following. […]

[11] = tested on: HepG2 xenografts; assay: HepG2 xenografts growth in nude mice; format: in vivo, Balb/c nude mice; details: 1.0 mg/kg intraperitoneally every 2 d for 20 days
Procedure: as §3

[12] = tested on: TNF-α expression in HepG2 xenografts; assay: Immunohistochemistry staining of TNF-α in HepG2 xenografts; format: in vivo, Balb/c nude mice; details: 96 5.0 mg/kg, DOX 1.0 mg/kg, versus model group
Procedure: as §3, §4

[13] = tested on: HepG2 xenografts; assay: HE staining of HepG2 xenografts; format: in vivo, Balb/c nude mice
Procedure: as §3
The HepG2 xenografts tissues were embedded using the paraffin, and sectioned for HE staining and immunohistochemistry staining. HE staining was performed routinely. The immunohistochemistry staining carried out as following. Briefly, the processed sections were incubated with the primary antibodies: Bcl-2 and TNF-α (NOVUS BIOLOGICALS) at 4 °C overnight. After washing, the anti-rabbit peroxidase-conjugated secondary antibody (Sigma-Aldrich, St. Louis, MO) was incubated for 1 h at RT. After washing with PBS, the cells were visualized using the 3,3'-diaminobenzidine (DAB) solution under the light microscope. The cell images were taken using a light microscopy (Olympus, Tokyo, Japan).

[14] = BAPs 6.0 μM, PDTC 30 μM, LPS 1.0 μg/mL

Row | SMILES | IC50 [1] | THP-1 SI (selectivity index) [1] | IC50 [2] | HeLa SI (selectivity index) [2] | IC50 [3] | IC50 [4] | MCF-7 SI (selectivity index) [4] | IC50 [5] | SGC7901 SI (selectivity index) [5] | IC50 [6] | HepG2 SI (selectivity index) [6] | TNF-α secretion [7, 14] | IC50 [8] | HCT116 SI (selectivity index) [8] | IC50 [9] | A549 SI (selectivity index) [9] | IC50 ([1]; Homo sapiens, THP-1, 24 h) | IC50 ([2]; Homo sapiens, HeLa) | IC50 ([3]; Homo sapiens) | IC50 ([4]; Homo sapiens, MCF7) | further results
1 | CN1CC(=Cc2cccc(N=Cc3ccc(O)c(O)c3O)c2)C(=O)C(=Cc2ccccc2F)C1 [Compound 100] | 7.7 ± 0.1 µM | 2.6 | 11.9 ± 0.2 µM | 1.7 | 19.8 ± 0.3 µM | 7.7 ± 0.2 µM | 2.6 | 3.6 ± 0.1 µM | 5.5 | 8.8 ± 0.4 µM | 2.3 | 45% | 11.9 ± 0.1 µM | 1.7 | 1.9 ± 0.2 µM | 10.4 |  |  |  |  | 
2 | CN1CC(=Cc2cccc(N=Cc3cc([N+](=O)[O-])ccc3F)c2)C(=O)C(=Cc2ccccc2F)C1 [Compound 97] | 8.1 ± 0.4 µM | 1.5 | 5.1 ± 1.2 µM | 2.3 | 11.8 ± 0.4 µM | 10.7 ± 0.1 µM | 1.1 | 3.4 ± 0.8 µM | 3.5 | 4.2 ± 0.5 µM | 2.8 | 45% | 11.7 ± 0.2 µM | 1.0 | 5.7 ± 0.4 µM | 2.1 |  |  |  |  | 
3 | CN1CC(=Cc2cccc(N=Cc3cc(F)ccc3O)c2)C(=O)C(=Cc2ccccc2F)C1 [Compound 93] | 2.4 ± 0.5 µM | 6.3 | 3 ± 0.1 µM | 5.0 | 15.1 ± 0.7 µM | 3.8 ± 0.9 µM | 4.0 | 2.8 ± 0.5 µM | 5.4 | 2.2 ± 0.2 µM | 6.9 | 45% | 2.5 ± 1.8 µM | 6.0 | 3.7 ± 0.1 µM | 4.1 |  |  |  |  | Inhibition of TNF-α secretion compared with PDTC (in words) [7, 14]: superior to PDTC group
4 | COc1cccc2c1C(=O)c1c(O)c3c(c(O)c1C2=O)C[C@@](O)(C(=O)CO)C[C@@H]3O[C@H]1C[C@H](N)[C@H](O)[C@H](C)O1 [DOX, Doxorubicin, reference compound] |  | 0.5 |  | 0.7 |  |  | 1.7 |  | 1.4 |  | 3.9 |  |  | 1.3 |  | 1.4 | 9.5 ± 0.8 µM | 7 ± 0.3 µM | 4.7 ± 0.7 µM | 2.8 ± 0.7 µM | Bcl-2 expression, immunohistochemistry [10]: significantly reduced; Growth of HepG2 xenografts [11]: significantly inhibited the growth of HepG2 xenografts; IC50 ([5]; Homo sapiens, SGC-7901): 3.3 ± 0.5 µM; IC50 ([6]; Homo sapiens, HepG2, 24 h): 1.2 ± 0.1 µM; TNF-α expression, immunohistochemistry [12]: significantly reduced; IC50 ([8]; Homo sapiens, HCT-116): 3.5 ± 0.1 µM; IC50 ([9]; Homo sapiens, A549, 24 h): 3.4 ± 0.4 µM; Fracted cells, HE staining ([13]; 96 5.0 mg/kg, DOX 1.0 mg/kg): a plenty of fracted cells; Histopathological change of cell nucleus, HE staining ([13]; HepG2 xenografts, versus model group): made the HepG2 cell nucleus wrinkled
5 | CN1C/C(=C\c2cccc(N)c2)C(=O)/C(=C/c2ccccc2F)C1 [Compound 92, (3E,5E)-3-(3-aminobenzylidene)-5-(2-fluorobenzylidene)-1-methylpiperidin-4-one] |  |  |  |  |  |  | 6.8 |  | 6.8 |  |  |  |  |  |  | 8.6 | 1.2 ± 0.2 µM | 2.5 ± 0.2 µM | 18.9 ± 0.7 µM | 2.8 ± 0.3 µM | IC50 ([5]; Homo sapiens, SGC-7901): 2.8 ± 0.2 µM; IC50 ([6]; Homo sapiens, HepG2, 24 h): 1.1 ± 0.1 µM; TNF-α secretion (percent of LPS control) ([7]; 6.0 μM, 2 h pretreatment, LPS 1.0 μg/mL 22 h, ELISA): about 57%; IC50 ([8]; Homo sapiens, HCT-116): 3.1 ± 0.3 µM; IC50 ([9]; Homo sapiens, A549, 24 h): 2.2 ± 0.1 µM
6 | COc1cc(/C=C/C(=O)CC(=O)/C=C/c2ccc(O)c(OC)c2)ccc1O [Curcumin, reference compound] |  | 1.4 |  | 1.5 |  |  | 1.4 |  | 1.2 |  | 1.4 |  |  | 1.6 |  | 1.2 | 20.8 ± 0.6 µM | 19.4 ± 0.6 µM | 28.3 ± 1.2 µM | 20.5 ± 0.2 µM | IC50 ([5]; Homo sapiens, SGC-7901): 22.8 ± 0.6 µM; IC50 ([6]; Homo sapiens, HepG2, 24 h): 20.7 ± 0.1 µM; IC50 ([8]; Homo sapiens, HCT-116): 17.2 ± 0.3 µM; IC50 ([9]; Homo sapiens, A549, 24 h): 22.7 ± 1 µM
7 | CN1C/C(=C\c2cccc([N+](=O)[O-])c2)C(=O)/C(=C/c2ccc(F)cc2F)C1 [Compound 84] | 11.8 ± 0.2 µM | 1.6 | 10.2 ± 0.2 µM | 1.9 | 19.3 ± 0.3 µM | 8.5 ± 0.2 µM | 2.3 | 7.6 ± 0.8 µM | 2.5 | 8.2 ± 0.3 µM | 2.4 |  | 9.5 ± 0.1 µM | 2.0 | 6.2 ± 0.3 µM | 3.1 |  |  |  |  | 
